In US20080114007A1 (priority 2006, published 2008):
pIC50: −log10 of the molar value. Where two headings read alike, the source gives them in different places.

Target: CSF-1R (Homo sapiens, UniProt P07333)
Test: Peptide (non-phosphorylated) assay, fluorescence polarization competition immunoassay
Format: biochemical
Details: 308 μM SYEGNSYTFIDPTQ peptide, 1 mM ATP, 80 min, mean of at least three determinations
In short: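 Human CSF-1R kinase reaction started with ATP and run 80 min at room temperature, then stopped with EDTA. Phosphopeptide detected by fluorescence polarization competition using anti-phosphotyrosine antibody and PTK green tracer after 30 min. Controls used 4% DMSO, with EDTA added before reaction start for positive controls.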

[1] = 0.7 nM CSF-1R, read-out: c-fms Peptide IC50

Sequence of CSF-1R (P07333 20-972): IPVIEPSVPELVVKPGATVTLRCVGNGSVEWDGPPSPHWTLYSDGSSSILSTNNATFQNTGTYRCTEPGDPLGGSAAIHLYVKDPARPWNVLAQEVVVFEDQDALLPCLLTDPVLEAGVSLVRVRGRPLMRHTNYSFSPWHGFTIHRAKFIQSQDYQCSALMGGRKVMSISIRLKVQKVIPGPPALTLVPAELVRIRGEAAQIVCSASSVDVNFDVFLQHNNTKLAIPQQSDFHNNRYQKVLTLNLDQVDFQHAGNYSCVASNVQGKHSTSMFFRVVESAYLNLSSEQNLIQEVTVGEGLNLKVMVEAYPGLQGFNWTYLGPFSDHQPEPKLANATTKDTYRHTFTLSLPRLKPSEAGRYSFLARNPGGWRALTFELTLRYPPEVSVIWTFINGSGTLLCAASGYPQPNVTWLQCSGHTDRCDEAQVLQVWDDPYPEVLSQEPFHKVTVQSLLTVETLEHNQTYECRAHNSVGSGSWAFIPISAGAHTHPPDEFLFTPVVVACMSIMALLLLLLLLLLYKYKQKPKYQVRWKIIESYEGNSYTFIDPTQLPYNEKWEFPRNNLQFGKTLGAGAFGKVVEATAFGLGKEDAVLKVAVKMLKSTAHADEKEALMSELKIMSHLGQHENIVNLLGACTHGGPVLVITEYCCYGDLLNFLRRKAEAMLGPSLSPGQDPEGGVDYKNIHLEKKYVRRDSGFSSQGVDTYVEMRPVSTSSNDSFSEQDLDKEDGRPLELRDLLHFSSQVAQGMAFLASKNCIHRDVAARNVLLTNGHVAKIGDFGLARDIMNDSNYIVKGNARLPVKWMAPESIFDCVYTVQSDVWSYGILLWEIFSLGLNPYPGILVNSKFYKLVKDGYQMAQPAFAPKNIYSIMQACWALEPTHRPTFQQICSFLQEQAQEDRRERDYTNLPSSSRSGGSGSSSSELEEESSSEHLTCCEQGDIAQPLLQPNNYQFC

SMILES | pIC50 [1] | pIC50 (c-fms Peptide IC50, 0.7 nM CSF-1R)
CONC(=O)c1cn(-c2ccc3c(c2)CCC3)c2nc(Nc3ccc(CCN4CCN(C(C)=O)CC4)cc3)ncc2c1=O [Cpd 145, 2-{4-[2-(4-acetyl-piperazin-1-yl)-ethyl]-phenylamino}-8-indan-5-yl-5-oxo-5,8-dihydro-pyrido[2,3-d]pyrimidine-6-carboxylic acid methoxy-amide] | 8.92 | 
CONC(=O)c1cn(-c2ccc3c(c2)CCC3)c2nc(Nc3ccc(CN4CCCC4=O)cc3)ncc2c1=O [Cpd 9, 8-indan-5-yl-5-oxo-2-[4-(2-oxo-pyrrolidin-1-ylmethyl)-phenylamino]-5,8-dihydro-pyrido[2,3-d]pyrimidine-6-carboxylic acid methoxy-amide] | 9.62 | 
CONC(=O)c1cn(C2CCC(C)(C)CC2)c2nc(Nc3ccc(C4CCN(C)CC4)cc3)ncc2c1=O [Cpd 209, 8-(4,4-dimethyl-cyclohexyl)-2-[4-(1-methyl-piperidin-4-yl)-phenylamino]-5-oxo-5,8-dihydro-pyrido[2,3-d]pyrimidine-6-carboxylic acid methoxy-amide] |  | 9.40
CCc1ccc(-n2cc(C(=O)NOC)c(=O)c3cnc(Nc4cccc(OC5CCN(CC)CC5)c4)nc32)cc1 [Cpd 322, 8-(4-ethyl-phenyl)-2-[3-(1-ethyl-piperidin-4-yloxy)-phenylamino]-5-oxo-5,8-dihydro-pyrido[2,3-d]pyrimidine-6-carboxylic acid methoxy-amide] | 9.10 | 
CONC(=O)c1cn(-c2ccc(F)c(Cl)c2)c2nc(Nc3ccc(CCN4CCN(C)CC4)cc3)ncc2c1=O [Cpd 4, 8-(3-chloro-4-fluoro-phenyl)-2-{4-[2-(4-methyl-piperazin-1-yl)-ethyl]-phenylamino}-5-oxo-5,8-dihydro-pyrido[2,3-d]pyrimidine-6-carboxylic acid methoxy amide] | 8.66 | 
CCONC(=O)c1cn(C2CCCC2)c2nc(Nc3ccc(CCN4CCN(C)CC4)cc3)ncc2c1=O [Cpd 49, 8-cyclopentyl-2-{4-[2-(4-methyl-piperazin-1-yl)-ethyl]-phenylamino}-5-oxo-5,8-dihydro-pyrido[2,3-d]pyrimidine-6-carboxylic acid ethoxy-amide] | 8.77 | 
CONC(=O)c1cn(C2CCCCC2)c2nc(Nc3ccc(C4CCN(C(C)=O)CC4)cc3)ncc2c1=O [Cpd 28, 2-[4-(1-acetyl-piperidin-4-yl)-phenylamino]-8-cyclohexyl-5-oxo-5,8-dihydro-pyrido[2,3-d]pyrimidine-6-carboxylic acid methoxy-amide] | 8.66 | 
CN1CCN(CCc2ccc(Nc3ncc4c(=O)c(C(N)=O)cn(-c5ccc(Cl)cc5)c4n3)cc2)CC1 [Cpd 33, 8-(4-chloro-phenyl)-2-{4-[2-(4-methyl-piperazin-1-yl)-ethyl]-phenylamino}-5-oxo-5,8-dihydro-pyrido[2,3-d]pyrimidine-6-carboxylic acid amide] | 7.70 | 
CONC(=O)c1cn(-c2ccc(OC(F)(F)F)cc2)c2nc(Nc3ccc(C4CCNCC4)cc3)ncc2c1=O [Cpd 176, 5-oxo-2-(4-piperidin-4-yl-phenylamino)-8-(4-trifluoromethoxyphenyl)-5,8-dihydro-pyrido[2,3-d]pyrimidine-6-carboxylic acid methoxy-amide] | 9.23 | 
CCn1cnc2cc(Nc3ncc4c(=O)c(C(=O)NOC)cn(-c5ccc6c(c5)CCC6)c4n3)ccc21 [Cpd 301, 2-(1-ethyl-1H-benzoimidazol-5-ylamino)-8-indan-5-yl-5-oxo-5,8-dihydro-pyrido[2,3-d]pyrimidine-6-carboxylic acid methoxy-amide] | 9.05 | 
CONC(=O)c1cn(-c2ccc3c(c2)CCC3)c2nc(Nc3cccc(S(=O)(=O)N(C)C)c3)ncc2c1=O [Cpd 129, 2-(3-dimethylsulfamoyl-phenylamino)-8-indan-5-yl-5-oxo-5,8-dihydro-pyrido[2,3-d]pyrimidine-6-carboxylic acid methoxy-amide] | 8.64 | 
CONC(=O)c1cn(-c2ccc3c(c2)CCC3)c2nc(Nc3ccc(OC4CN5CCC4CC5)cc3)ncc2c1=O (stereo not drawn) [Cpd 264, 2-[4-(1-aza-bicyclo[2.2.2]oct-3-yloxy)-phenylamino]-8-indan-5-yl-5-oxo-5,8-dihydro-pyrido[2,3-d]pyrimidine-6-carboxylic acid methoxy-amide] | 9.42 | 
NC(=O)c1cn(-c2ccc3c(c2)CCC3)c2nc(Nc3cccc(N4CCCC4)c3)ncc2c1=O [Cpd 125, 8-indan-5-yl-5-oxo-2-(3-pyrrolidin-1-yl-phenylamino)-5,8-dihydro-pyrido[2,3-d]pyrimidine-6-carboxylic acid amide] | 8.24 | 
CCc1ccc(-n2cc(C(=O)NOC)c(=O)c3cnc(Nc4cc(OC)c(OC)c(OC)c4)nc32)cc1 [Cpd 305, 8-(4-ethyl-phenyl)-5-oxo-2-(3,4,5-trimethoxy-phenylamino)-5,8-dihydro-pyrido[2,3-d]pyrimidine-6-carboxylic acid methoxy-amide] | 9.15 | 

The remaining compounds from weak to strong by pIC50 [1], led by results:

pIC50 [1] | pIC50 (c-fms Peptide IC50, 0.7 nM CSF-1R) | SMILES
8.52 |  | CONC(=O)c1cn(C2CCCCC2)c2nc(Nc3ccc(CCN4CCOCC4)cc3)ncc2c1=O [Cpd 20, 8-cyclohexyl-2-[4-(2-morpholin-4-yl-ethyl)-phenylamino]-5-oxo-5,8-dihydro-pyrido[2,3-d]pyrimidine-6-carboxylic acid methoxy-amide]
8.80 |  | NC(=O)c1cn(-c2ccc3c(c2)CCC3)c2nc(Nc3ccc(CN4CCCC4=O)cc3)ncc2c1=O [Cpd 8, 8-indan-5-yl-5-oxo-2-[4-(2-oxo-pyrrolidin-1-ylmethyl)-phenylamino]-5,8-dihydro-pyrido[2,3-d]pyrimidine-6-carboxylic acid amide]
8.89 |  | CCc1ccc(-n2cc(C(=O)NOC)c(=O)c3cnc(Nc4ccc5cc[nH]c5c4)nc32)cc1 [Cpd 286, 8-(4-ethyl-phenyl)-2-(1H-indol-6-ylamino)-5-oxo-5,8-dihydro-pyrido[2,3-d]pyrimidine-6-carboxylic acid methoxy-amide]
9.05 |  | CCc1ccc(-n2cc(C(=O)NOC)c(=O)c3cnc(Nc4ccc(C5CCN(CCS(C)(=O)=O)CC5)cc4)nc32)cc1 [Cpd 96, 8-(4-ethyl-phenyl)-2-{4-[1-(2-methanesulfonyl-ethyl)-piperidin-4-yl]-phenylamino}-5-oxo-5,8-dihydro-pyrido[2,3-d]pyrimidine-6-carboxylic acid methoxy-amide]
9.06 |  | CONC(=O)c1cn(-c2ccc3c(c2)CCC3)c2nc(Nc3ccc(CCO)cc3)ncc2c1=O [Cpd 79, 2-[4-(2-hydroxy-ethyl)-phenylamino]-8-indan-5-yl-5-oxo-5,8-dihydro-pyrido[2,3-d]pyrimidine-6-carboxylic acid methoxy-amide]
9.19 |  | CONC(=O)c1cn(-c2ccc3c(c2)CCC3)c2nc(Nc3ccc(CCS(C)(=O)=O)cc3)ncc2c1=O [Cpd 71, 8-indan-5-yl-2-[4-(2-methanesulfonyl-ethyl)-phenylamino]-5-oxo-5,8-dihydro-pyrido[2,3-d]pyrimidine-6-carboxylic acid methoxy-amide]
9.24 |  | CONC(=O)c1cn(-c2ccc3c(c2)CCC3)c2nc(Nc3ccc(CCN4CC[C@@H](F)C4)cc3)ncc2c1=O [Cpd 252, 2-(4-{2-[(3R)-(3-fluoro-pyrrolidin-1-yl)]-ethyl}-phenylamino)-8-indan-5-yl-5-oxo-5,8-dihydro-pyrido[2,3-d]pyrimidine-6-carboxylic acid methoxy-amide]
